Assay results as given in PubChem BioAssay AID2060903 (Molecular Pharmacology Branch, DTP, NCI, 2025).

Test system: 377384-186-R-J1-PDC complex spheroid viability
Test: Anticancer human tumor 377384-186-R-J1-PDC patient-derived pancreatic carcinoma cell line growth inhibition [RAS]
Conditions: for IC50: curve of first compound; for viability, T/C: stronger effect = lower value
How it was run: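 Multi-cell-type spheroids: tumor cells plus HUVEC endothelial cells and mesenchymal stem cells. RAS-pathway inhibitors were combined with targeted agents, each dosed in half-log steps down from clinical Cmax, or from 10 microM when Cmax was unknown.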
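Note: spheroids exposed to compounds for seven days before readout.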

Cc1nc(N2CCC3(CC2)COC(C)C3N)c(CO)nc1Sc1ccnc(N)c1Cl (configuration not stated) + C=CC(=O)N1CCN(c2nc(OCC3CCCN3C)nc3c(F)c(-c4nc(N)cc(C)c4C(F)(F)F)c(Cl)cc23)C(C)C1
IC50 (second compound 0.00316 µM): > 10 µM | IC50 (second compound 0.01 µM): > 10 µM | IC50 (second compound 0.0316 µM): > 10 µM | IC50 (second compound 0.1 µM): > 10 µM | IC50 (second compound 0.316 µM): > 10 µM | IC50 (second compound 1 µM): > 10 µM | viability, T/C (second compound 0.00316 µM, first compound 0.0316 µM): 94.2% | viability, T/C (second compound 0.00316 µM, first compound 0.1 µM): 77% | viability, T/C (second compound 0.00316 µM, first compound 0.316 µM): 84% | viability, T/C (second compound 0.00316 µM, first compound 1 µM): 80.4% | viability, T/C (second compound 0.00316 µM, first compound 3.16 µM): 70% | viability, T/C (second compound 0.00316 µM, first compound 10 µM): 67% | viability, T/C (second compound 0.01 µM, first compound 0.0316 µM): 90.9% | viability, T/C (second compound 0.01 µM, first compound 0.1 µM): 85.9% | viability, T/C (second compound 0.01 µM, first compound 0.316 µM): 81% | viability, T/C (second compound 0.01 µM, first compound 1 µM): 74.7% | viability, T/C (second compound 0.01 µM, first compound 3.16 µM): 79.1% | viability, T/C (second compound 0.01 µM, first compound 10 µM): 77.8% | viability, T/C (second compound 0.0316 µM, first compound 0.0316 µM): 91.1% | viability, T/C (second compound 0.0316 µM, first compound 0.1 µM): 80.7% | viability, T/C (second compound 0.0316 µM, first compound 0.316 µM): 72.4% | viability, T/C (second compound 0.0316 µM, first compound 1 µM): 80.4% | viability, T/C (second compound 0.0316 µM, first compound 3.16 µM): 79.2% | viability, T/C (second compound 0.0316 µM, first compound 10 µM): 78.4% | viability, T/C (second compound 0.1 µM, first compound 0.0316 µM): 84.4% | viability, T/C (second compound 0.1 µM, first compound 0.1 µM): 82.7% | viability, T/C (second compound 0.1 µM, first compound 0.316 µM): 70.7% | viability, T/C (second compound 0.1 µM, first compound 1 µM): 76% | viability, T/C (second compound 0.1 µM, first compound 3.16 µM): 80.1% | viability, T/C (second compound 0.1 µM, first compound 10 µM): 74.6% | viability, T/C (second compound 0.316 µM, first compound 0.0316 µM): 91.8% | viability, T/C (second compound 0.316 µM, first compound 0.1 µM): 87% | viability, T/C (second compound 0.316 µM, first compound 0.316 µM): 76.5% | viability, T/C (second compound 0.316 µM, first compound 1 µM): 79.3% | viability, T/C (second compound 0.316 µM, first compound 3.16 µM): 75.7% | viability, T/C (second compound 0.316 µM, first compound 10 µM): 69.8% | viability, T/C (second compound 1 µM, first compound 0.0316 µM): 84.1% | viability, T/C (second compound 1 µM, first compound 0.1 µM): 91.2% | viability, T/C (second compound 1 µM, first compound 0.316 µM): 81.7% | viability, T/C (second compound 1 µM, first compound 1 µM): 73.6% | viability, T/C (second compound 1 µM, first compound 3.16 µM): 78.4% | viability, T/C (second compound 1 µM, first compound 10 µM): 79.8%
